# Substitutions are numbered along the chain they refer to.
# Assays:
# Experiment in all cases: Enzyme kinetic parameters, 96-well plate assay
# Format in all cases: biochemical
# [1] = molecular target: T1, horseradish peroxidase variant HRP N13D/N57S/P146Q/N175S/N255D/N268D/N275K (mHRP, SEQ ID NO: 4) (Armoracia rusticana, UniProt P00433, N205S/N285D/N298D/N305K/N43D/N87S/P176Q); settings: 50 mM phosphate-citrate buffer pH 5, 30 °C; for Vmax (substrate ABTS): ABTS 0.1 - 7 mM, 1 mM hydrogen peroxide
# T1 sequence (P00433 31-338 N43D/N87S/P176Q/N205S/N285D/N298D/N305K): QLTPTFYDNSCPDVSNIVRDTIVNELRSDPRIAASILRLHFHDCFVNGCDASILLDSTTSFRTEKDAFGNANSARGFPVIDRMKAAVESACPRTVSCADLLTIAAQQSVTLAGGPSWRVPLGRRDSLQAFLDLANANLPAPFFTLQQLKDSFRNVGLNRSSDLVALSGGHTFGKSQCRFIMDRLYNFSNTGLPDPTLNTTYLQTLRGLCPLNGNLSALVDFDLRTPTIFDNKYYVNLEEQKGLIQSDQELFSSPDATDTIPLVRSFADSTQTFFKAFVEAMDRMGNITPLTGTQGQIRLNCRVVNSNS
# Protocol: (§1) Plant HRP Type VI-A (Cat. No.: P6782) was obtained from Sigma-Aldrich (St. Louis, MO, USA). All HRP variants produced in E. coli consisted of the sequence as set forth in SEQ ID NO: 2 with the indicated mutations unless specified otherwise.
# (§2) For measurements with 3,3',5,5'-tetramethylbenzidine (TMB) as substrate, the reaction mixture in each well of the 96-well plate contained a saturating hydrogen peroxide concentration of 1 mM and varying TMB concentrations (20 - 550 µM) in 50 mM phosphate-citrate buffer pH 5 in a final volume of 200 µL. Protein sample (5 µL) was mixed with 175 µl TMB-buffer mixture and the reaction was started with 20 µl hydrogen peroxide solution (10 mM). The increase in absorption was followed at 652 nm for 60s at 30 °C in a Tecan Infinite M200 PRO instrument. The kinetic parameters were calculated using Sigma Plot software (Systat Software INC., San Jose, CA, USA) and an extinction coefficient of ε652 = 39 mM^-1 cm^-1 (see Josephy, et al. "The horseradish peroxidase-catalyzed oxidation of 3, 5, 3', 5'-tetramethylbenzidine. Free radical and charge-transfer complex intermediates." Journal of Biological Chemistry 257.7 (1982): 3669-3675).
# (§3) The increase in absorption was followed at 420 nm for 120 s at 30 °C in a Tecan Infinite M200 PRO instrument. The kinetic parameters were calculated using Sigma Plot software (Systat Software INC., San Jose, CA, USA) and an extinction coefficient of ε420 = 36 mM^-1 cm^-1 (see Childs and Bardsley. "The steady-state kinetics of peroxidase with 2, 2'-azino-di-(3-ethyl-benzthiazoline-6-sulphonic acid) as chromogen." Biochemical Journal 145.1 (1975): 93-103).
# as §3
# [2] = molecular target: T2, horseradish peroxidase variant HRP N13D/N57S/N175S/N255D/N268D (Armoracia rusticana, UniProt P00433, N205S/N285D/N298D/N43D/N87S); settings: 50 mM phosphate-citrate buffer pH 5, 30 °C
# T2 sequence (P00433 31-338 N43D/N87S/N205S/N285D/N298D): T1 sequence (P00433 31-338 N43D/N87S/P176Q/N205S/N285D/N298D/N305K) with Q146P, K275N
# Protocol: as §1, §2, §3, §3
# [3] = molecular target: T3, plant-derived HRP (pHRP; Plant HRP Type VI-A, horseradish peroxidase) (Armoracia rusticana, UniProt P00433); settings: Table 19; ABTS 0.1 - 7 mM, 1 mM hydrogen peroxide, 50 mM phosphate-citrate buffer pH 5, 30 °C
# T3 sequence (P00433 31-338): T1 sequence (P00433 31-338 N43D/N87S/P176Q/N205S/N285D/N298D/N305K) with D13N, S57N, Q146P, S175N, D255N, D268N, K275N
# Protocol: as §1, §2, §3
# [4] = molecular target: T4, wild-type HRP (rHRP, horseradish peroxidase variant C1A, SEQ ID NO: 2) (Armoracia rusticana, UniProt P00433); settings: Table 20; TMB 20 - 550 µM, 1 mM hydrogen peroxide, 50 mM phosphate-citrate buffer pH 5, 30 °C
# T4 sequence (P00433 31-338): T1 sequence (P00433 31-338 N43D/N87S/P176Q/N205S/N285D/N298D/N305K) with D13N, S57N, Q146P, S175N, D255N, D268N, K275N
# Protocol: as §1, §2, §3
# [5] = Table 17, hydrogen peroxide 0.001 - 1 mM, 10 mM ABTS
# [6] = Table 17, hydrogen peroxide 0.001 - 1 mM, 10 mM ABTS, read-out: Km (substrate H2O2)
compound,measurement,setting,value
"CCn1c(=NN=c2sc3cc(S(=O)(=O)O)ccc3n2CC)sc2cc(S(=O)(=O)O)ccc21 [ABTS, 2,2'-azino-bis(3-ethylbenzothiazoline-6-sulfonic acid)]",Vmax (substrate ABTS),[1]; Table 18,1214 ± 98 U/mg
same,Vmax (substrate ABTS),[1]; Table 19,1203 ± 96 U/mg
same,Vmax (substrate ABTS),"[2]; Table 18, ABTS 0.1 - 7 mM, 1 mM hydrogen peroxide",1224 ± 115 U/mg
same,Vmax (substrate ABTS),[3],1285 ± 70 U/mg
"OO [H2O2, hydrogen peroxide]",Vmax (substrate H2O2),[1]; [5],2337 ± 38 U/mg
same,kcat (substrate H2O2),[1]; [5],1344 ± 22 s⁻¹
same,Km,[1]; [6],171 ± 9 µM
same,Vmax (substrate H2O2),[2]; [5],2003 ± 14 U/mg
same,kcat (substrate H2O2),[2]; [5],1152 ± 8.3 s⁻¹
same,Km,[2]; [6],174 ± 4 µM
"Cc1cc(-c2cc(C)c(N)c(C)c2)cc(C)c1N [TMB, 3,3',5,5'-tetramethylbenzidine]",Vmax (substrate TMB),[4],7146 ± 355 U/mg
same,kcat (substrate TMB),[4],4169 ± 207 s⁻¹
